Target: T1, recombinant human ARG1 (Homo sapiens, UniProt P05089)
T1 sequence (P05089 1-322): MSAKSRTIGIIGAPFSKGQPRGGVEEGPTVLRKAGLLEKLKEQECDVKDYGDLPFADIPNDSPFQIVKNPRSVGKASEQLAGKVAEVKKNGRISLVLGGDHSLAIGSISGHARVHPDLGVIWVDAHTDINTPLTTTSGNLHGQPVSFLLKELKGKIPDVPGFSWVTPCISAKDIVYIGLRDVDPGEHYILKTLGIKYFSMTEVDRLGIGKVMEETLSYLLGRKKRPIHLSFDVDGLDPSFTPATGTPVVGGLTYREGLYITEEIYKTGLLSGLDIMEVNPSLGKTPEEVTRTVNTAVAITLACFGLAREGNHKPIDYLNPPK
Assay: Arginase coupled enzymatic assay using recombinant human ARG1
Format: biochemical
Conditions: 2 nM ARG1, 0.8 mM L-Arginine, 10 mM sodium phosphate pH 7.4, 0.1 mM MnCl2, 37° C., absorption at 570 nm; read-out: hARG1 potency (IC50)
Method: Purified recombinant human ARG1 and ARG2 were prepared in 50 mM Bicine, pH 8.5, 100 μM MnCl2, 20% glycerol and 1mM DTT at a final stock concentration of 14.4 μM and 7.56 μM respectively. 2.5 nM of either ARG1 or ARG2 were incubated with varying concentrations of compounds in 10 mM sodium phosphate, pH 7.4, 0.1 mM MnCl2 and 2.5% DMSO in a total volume of 40 μl in a 384-well microplate (Corning™ #3640) at 37° C. for 1 h. The arginase enzymatic reaction was initiated by addition of 10 μl of 4 mM L-Arginine pre-incubated in 10 mM sodium phosphate, pH 7.4, and 0.1 mM MnCl2 at 37° C. into the enzyme and compound mixture, giving the final reaction conditions: 2 nM of ARG1 or ARG2 and 0.8 mM of L-Arginine in 10 mM sodium phosphate, pH 7.4, 0.1 mM MnCl2 and 2% DMSO with varying concentrations of compounds. Following 2 h incubation at 37° C., the arginase enzymatic reaction was stopped by transfer of 10 μl of reaction into 10 μl of detection mix (204 μM Amino-2-Borono-6-Hexanoic Acid, 0.25 μl Arginase Enzyme mix, 0.25 μl Arginase Developer, 0.25 μl Arginase Converter Enzyme in Arginase Assay Buffer from Arginase Activity Colorimetric Assay Kit, BioVision Inc. #K755-100) in a transparent 384-well microplate (Greiner #781801). The plate was immediately put into a plate reader (Synergy™ Neo2 Multi-Mode Microplate Reader) to monitor absorption at 570 nm at 37° C. Absorption values at 12˜20 min were used to calculate compound potency. The value of the DMSO blank (MIN inhibition=100% activity) was used as a negative control. The positive control was established by adding 8 μl of enzyme and DMSO mix into 10 μl of detection mix followed by addition of 2 μl of L-Arginine (MAX inhibition=0% activity). To calculate the percent activity, Equation 1 was used. Abs570nm is the value at a given compound concentration:
A counter-screen was performed to identify any inhibition of the coupling enzymes by the test compounds. 10 μl of 0.26 mM of urea with varying concentrations of compounds in 10 mM sodium phosphate, pH 7.4, 0.1 mM MnCl2 and 2% DMSO were added into 10 μl of detection mix in place of the arginase enzymatic reaction mix. Absorption was monitored at 570 nm as described above. The values of a no substrate blank (without urea; MAX inhibition=0% activity) and a DMSO blank (MIN inhibition=100% activity) were used as positive and negative controls respectively. […] Inactivity in the counter-screen was used to confirm that results accurately reflected IC50 values for ARG1 and ARG2.

Compound	IC50 [nM]
CN[C@@]1(C(=O)O)c2cc(CN)ccc2C[C@@H]1CCCB(O)O	< 100
CN[C@@]1(C(=O)O)c2ccccc2C[C@@H]1CCCB(O)O	100 to 1000
CN[C@@]1(C(=O)O)c2cc(-c3ccccn3)c(F)cc2C[C@@H]1CCCB(O)O	100 to 1000
CN[C@@]1(C(=O)O)c2cc([C@@H](C)N)c(Cl)cc2C[C@@H]1CCCB(O)O	< 100
CN[C@@]1(C(=O)O)c2cc(CCCN)c(F)cc2C[C@@H]1CCCB(O)O	< 100
CN[C@@]1(C(=O)O)c2cc(CN)c(Cl)cc2C[C@@H]1CCCB(O)O	< 100
CN[C@@]1(C(=O)O)c2cc(CN3CCCCC3)c(F)cc2C[C@@H]1CCCB(O)O	< 100
CN[C@@]1(C(=O)O)c2cc(CN)c(F)cc2C[C@@H]1CCCB(O)O	< 100
CN[C@@]1(C(=O)O)c2cc(-c3cccc(CN)c3)c(Cl)cc2C[C@@H]1CCCB(O)O	< 100
NCc1cccc2c1C[C@H](CCCB(O)O)[C@]2(N)C(=O)O	100 to 1000
CN[C@@]1(C(=O)O)c2cc(Cc3ccccn3)c(Cl)cc2C[C@@H]1CCCB(O)O	100 to 1000
CN[C@@]1(C(=O)O)c2cc(CNCC(F)(F)F)c(F)cc2C[C@@H]1CCCB(O)O	100 to 1000
CN[C@@]1(C(=O)O)c2cc([C@@H](C)N)ccc2C[C@@H]1CCCB(O)O	< 100
CN[C@@]1(C(=O)O)c2cc([C@H](C)N)c(F)cc2C[C@@H]1CCCB(O)O	< 100
CN[C@@]1(C(=O)O)c2cc(CNC(C)C)c(F)cc2C[C@@H]1CCCB(O)O	< 100
N[C@@]1(C(=O)O)c2cccc(-c3cn[nH]c3)c2C[C@@H]1CCCB(O)O	> 1000
N#Cc1ccc2c(c1)[C@@](N)(C(=O)O)[C@@H](CCCB(O)O)C2	> 1000
CN[C@@]1(C(=O)O)c2cc(C(C)(C)N)c(F)cc2C[C@@H]1CCCB(O)O	< 100
CC[C@@H](NC)c1cc2c(cc1F)C[C@H](CCCB(O)O)[C@]2(NC)C(=O)O	< 100
N[C@@]1(C(=O)O)c2cccnc2C[C@@H]1CCCB(O)O	> 1000
CN[C@@]1(C(=O)O)c2ccc(CN)cc2C[C@@H]1CCCB(O)O	< 100
CC(N)c1ccc2c(c1)[C@@](N)(C(=O)O)[C@@H](CCCB(O)O)C2 (some centres unmarked)	< 100
CN[C@@]1(C(=O)O)c2cc(C(C)(C)CN)c(F)cc2C[C@@H]1CCCB(O)O	< 100
CN[C@@]1(C(=O)O)c2cc([C@@H](N)C3CC3)c(Cl)cc2C[C@@H]1CCCB(O)O	< 100

Compound	IC50 [nM]
CN[C@@]1(C(=O)O)c2cc(CN3CCC(F)(F)CC3)c(F)cc2C[C@@H]1CCCB(O)O	100 to 1000
CN[C@@]1(C(=O)O)c2cc(CN(C)C)c(Cl)cc2C[C@@H]1CCCB(O)O	< 100
CN[C@@]1(C(=O)O)c2cc(-c3ccccc3CO)c(F)cc2C[C@@H]1CCCB(O)O	100 to 1000
CN[C@@]1(C(=O)O)c2cc(C3(CN)CCC3)c(F)cc2C[C@@H]1CCCB(O)O	< 100
CN[C@@]1(C(=O)O)c2cc(CNC(=O)[C@H](C)N)ccc2C[C@@H]1CCCB(O)O	< 100
CN[C@@]1(C(=O)O)c2cc(C3(N)CCC3)c(F)cc2C[C@@H]1CCCB(O)O	< 100
CN[C@@]1(C(=O)O)c2cc([C@H](C)N)c(Cl)cc2C[C@@H]1CCCB(O)O	< 100
CN[C@@]1(C(=O)O)c2cc(CN3CCCC3)c(F)cc2C[C@@H]1CCCB(O)O	< 100
CN[C@@]1(C(=O)O)c2cc(C3(CNC(=O)[C@H](C)N)CCC3)c(F)cc2C[C@@H]1CCCB(O)O	< 100
NC1(c2cc3c(cc2F)C[C@H](CCCB(O)O)[C@]3(N)C(=O)O)CCC1	< 100
CN[C@@]1(C(=O)O)c2cc(C3(NC(=O)[C@H](C)N)CCC3)c(F)cc2C[C@@H]1CCCB(O)O	100 to 1000
CN[C@@]1(C(=O)O)c2cc([C@H](C)N)ccc2C[C@@H]1CCCB(O)O	< 100
CN[C@@]1(C(=O)O)c2cc(C3(N)CCCC3)c(F)cc2C[C@@H]1CCCB(O)O	< 100
N[C@@]1(C(=O)O)c2cc(Cl)ccc2C[C@@H]1CCCB(O)O	100 to 1000
CN[C@@]1(C(=O)O)c2cc([C@@H](C)N)c(F)cc2C[C@@H]1CCCB(O)O	< 100
N[C@@]1(C(=O)O)c2cccc(Br)c2C[C@@H]1CCCB(O)O	> 1000
CN[C@@]1(C(=O)O)c2cc(N3CC[C@H](O)C3)c(F)cc2C[C@@H]1CCCB(O)O	100 to 1000
CN[C@@]1(C(=O)O)c2cc([C@H](C)N)c(C)cc2C[C@@H]1CCCB(O)O	< 100
CN[C@@]1(C(=O)O)c2cc(Cn3ccnc3N)c(Cl)cc2C[C@@H]1CCCB(O)O	< 100
N[C@@]1(C(=O)O)c2ccc(Cl)cc2C[C@@H]1CCCB(O)O	100 to 1000
CN[C@@]1(C(=O)O)c2cc(CN3CC(F)(F)C3)c(Cl)cc2C[C@@H]1CCCB(O)O	100 to 1000
CN[C@@]1(C(=O)O)c2cc([C@@H](N)C(C)C)c(Cl)cc2C[C@@H]1CCCB(O)O	< 100
CC[C@@H](N)c1cc2c(cc1Cl)C[C@H](CCCB(O)O)[C@]2(NC)C(=O)O	< 100
CN[C@@]1(C(=O)O)c2cc(OCCN)ccc2C[C@@H]1CCCB(O)O	< 100

Compound	IC50 [nM]
CN[C@@]1(C(=O)O)c2cc([C@H](C)N)c(OCC(F)(F)F)cc2C[C@@H]1CCCB(O)O	< 100
CN[C@@]1(C(=O)O)c2cc([C@H](N)C(C)C)c(Cl)cc2C[C@@H]1CCCB(O)O	< 100
NCCc1cccc2c1C[C@H](CCCB(O)O)[C@]2(N)C(=O)O	100 to 1000
CN[C@@]1(C(=O)O)c2cc(-c3ccc(F)cc3CN)c(F)cc2C[C@@H]1CCCB(O)O	< 100
NCc1ccc2c(c1)[C@@](N)(C(=O)O)[C@@H](CCCB(O)O)C2	< 100
NC1CN(c2ccc3c(c2)C[C@H](CCCB(O)O)[C@]3(N)C(=O)O)C1	> 1000
COc1ccc2c(c1)[C@@](N)(C(=O)O)[C@@H](CCCB(O)O)C2	100 to 1000
CN[C@@]1(C(=O)O)c2cc([C@@H](N)C(F)(F)F)ccc2C[C@@H]1CCCB(O)O	100 to 1000
CN[C@@]1(C(=O)O)c2cc(C3(C(N)=O)CCC3)c(F)cc2C[C@@H]1CCCB(O)O	100 to 1000
CN[C@@]1(C(=O)O)c2cc(N)c(Cl)cc2C[C@@H]1CCCB(O)O	100 to 1000
CN[C@@]1(C(=O)O)c2cc(-c3ccc(CN)cc3)c(Cl)cc2C[C@@H]1CCCB(O)O	< 100
CN[C@@]1(C(=O)O)c2cc(CO)c(Cl)cc2C[C@@H]1CCCB(O)O	100 to 1000
CN[C@@]1(C(=O)O)c2cc(CN3CC[C@@H](F)C3)c(F)cc2C[C@@H]1CCCB(O)O	< 100
CN[C@@]1(C(=O)O)c2cc([C@H](N)C3CC3)c(F)cc2C[C@@H]1CCCB(O)O	< 100
CN[C@@]1(C(=O)O)c2cc(CNC(C)=O)ccc2C[C@@H]1CCCB(O)O	100 to 1000
CN[C@@]1(C(=O)O)c2cc(-c3ccc(CN)cc3)ccc2C[C@@H]1CCCB(O)O	< 100
CN[C@@]1(C(=O)O)c2cc(-c3ccccc3CN)c(F)cc2C[C@@H]1CCCB(O)O	< 100
CN[C@@]1(C(=O)O)c2cc(C3(N)CC3)c(F)cc2C[C@@H]1CCCB(O)O	< 100
Cc1ccc2c(c1)C[C@H](CCCB(O)O)[C@]2(N)C(=O)O	> 1000
CN[C@@]1(C(=O)O)c2cc(OC)c(CN)cc2C[C@@H]1CCCB(O)O	< 100
CC[C@H](NC)c1cc2c(cc1F)C[C@H](CCCB(O)O)[C@]2(NC)C(=O)O	< 100
CN[C@@]1(C(=O)O)c2cc(-c3cccnc3)c(F)cc2C[C@@H]1CCCB(O)O	100 to 1000
CN[C@@]1(C(=O)O)c2cc(C3(N)CC(C)(C)C3)c(F)cc2C[C@@H]1CCCB(O)O	< 100

Reference: patent US12226425B2, “Inhibitors of ARG1 and/or ARG2” (Arcus Biosciences, Inc., priority 2018, dated 2025)
